Data set [1] is described as follows: Sensory evaluation (smell, color, taste) of Maillard reaction samples, Examples 52, 55-63. Details: species or system human. The procedure: For evaluation of the taste profile, the samples were tested by a panel of four people. 1 trained taster tasted independently the samples first. The taster was asked to describe the taste profile and score 0-5 according to the increasing sugar likeness, bitterness, aftertaste and lingering taste profiles. The first taster was allowed to re-taste, and then make notes for the sensory attributes perceived. Afterwards, another 3 tasters tasted and the attributes were noted and discussed openly to find a suitable description. In case that more than 1 taster disagreed with the results, the tasting was repeated. In some sensory test results (above), the taste rating was expressed by “+”, which means the intensity of the factors is shown by three levels. “+” for slight, “++” for moderate and “+++” for very strong.
All samples were assessed at 22° C. after the Maillard reaction was stopped by placing the sealed vials in an ice bath. After 20 minutes in the ice bath the sealed vials were put in a water bath set to 22° C.
The odor/smell was assessed independently by 3 persons; the final description was agreed after discussion. […] The taste was assessed independently by 3 persons either in the original samples or after appropriate dilution to achieve relevant concentrations of sugars and steviol-glycosides (i.e. 5-9% SE); the final description was agreed after discussion.

Assay in data set [2]: as above
Details: species or system human. The conditions noted are these: before reaction, 10 ml KH2PO4 pH 7.8 (Example 57).

For data set [3] the following is noted: cited from earlier work; for sweetness: depends on the tested concentration compared with sucrose.
The nature of data set [4]: HPLC/DAD/MS analysis of reaction partners and MRI (Amadori) products. Format: physicochemical. To be noted: 120 °C; for consumption in the reaction with Phe: KH2PO4 pH 7.8, 2.5 h, glucose present or not. The procedure: Quantitative evaluation was performed using external standardization.
[5] abbreviates: Table 52.2: 1 ml water + 9 ml Glycerin, 0.67 h, 100 °C.
Where [6] appears, read: 1 ml water + 9 ml Glycerin, 2.0 h, 120 °C.
Setting [7] is: Table 52.3: 1 ml water + 9 ml Glycerin, 0.67 h, 100 °C.
Setting [8] is: negative controls (no carbohydrate source), 10 ml glycerin/water, 100 °C, 40 minutes.
[9] abbreviates: after reaction, 10 ml KH2PO4 pH 7.8, 2.5 h, 120 °C (Example 58).
The mark [10] stands for this setting: before reaction, 10 ml KH2PO4 pH 7.8 (Example 58).
Where [11] appears, read: 1 ml water + 9 ml Glycerin, 1 h, 100 °C.
[12] abbreviates: after reaction, 10 ml KH2PO4 pH 7.8, 2.5 h, 120 °C (Example 57).

Residues, ends and D or L forms follow the SMILES beside them.

`C[C@H](N)C(=O)O` [0.1 mMol Ala, Alanine]: the Color entry in data set [1] (setting [5]) was “No Color”.
`O=C[C@H](O)[C@@H](O)[C@H](O)[C@H](O)C(=O)O` [0.1 mMol Gluc Acid, Glucuronic Acid]: in data set [1] (setting [6]), the Color entry is listed as “Almost black”, the “Intensity of Smell” value is “+++”, the Smell entry is “burnt bread” and the Taste entry is “Bitter”.
The matching figures for `O=C[C@H](O)[C@H]1OC(=O)[C@@H](O)[C@H]1O` [0.1 mMol GlucLac, Glucuronolactone]: “Almost black”, “+++”, “Burnt sugar” and “Bitter”.
On to `NCCCC[C@H](N)C(=O)O` [0.1 mMol Lys, Lysine], for which, in data set [1] (setting [7]), the Color entry is listed as “Brown”, the Smell entry is recorded as “Popcorn” and the Taste result is recorded as “Sweet”.
For `N[C@@H](Cc1ccccc1)C(=O)O` [0.1 mMol Phe, Phenylalanine], in data set [1] (setting [6]), the Color result is reported as “Slightly Yellow”; the “Intensity of Smell” value is reported as “+”; the Smell entry was “Caramel, burnt”; the Taste result is “sweet”. In addition, in data set [1] (setting [5]), the Color result is on record as “Slightly Yellow”, the Smell entry is “flowery/bloomy,” and the Taste result is reported as “sweet”.
For the compound `C=C1C[C@@]23CC[C@H]4[C@@](C)(CCC[C@@]4(C)C(=O)O[C@@H]4O[C@H](CO)[C@@H](O)[C@H](O)[C@H]4O)[C@@H]2CC[C@]1(O[C@@H]1O[C@H](CO)[C@@H](O)[C@H](O[C@@H]2O[C@H](CO)[C@@H](O)[C@H](O)[C@H]2O)[C@H]1O[C@@H]1O[C@H](CO)[C@@H](O)[C@H](O)[C@H]1O)C3` [0.05 mMol Reb-A, Rebaudioside A], the Color entry in data set [1] (setting [5]) is on record as “Slightly Yellow”.
With `N[C@@H](Cc1ccccc1)C(=O)O` [3.3 mMol Phe, Phenylalanine], the Color entry in data set [1] (Glycerin 10 ml, 100 °C, 5 min) is listed as “No color”; in data set [1] (Glycerin 10 ml, 100 °C, 10 min), “No color”; in data set [1] (Glycerin 10 ml, 100 °C, 20 min), “Slightly Yellow”; in data set [1] (Glycerin 10 ml, 100 °C, 40 min) it was “Yellow-slightly”; in data set [1] (Glycerin 10 ml, 1 h, 120 °C), “Brown”. Also, the Smell result in data set [1] (Glycerin 10 ml, 100 °C, 5 min) is given as “Slightly bloomy”; in data set [1] (Glycerin 10 ml, 100 °C, 10 min) it was “flowery/bloomy”; in data set [1] (Glycerin 10 ml, 100 °C, 20 min) it was “flowery/bloomy”; in data set [1] (Glycerin 10 ml, 100 °C, 40 min), “flowery/bloomy”; in data set [1] (Glycerin 10 ml, 1 h, 120 °C), “flowery/bloomy”.
In the case of `C[C@H](N)C(=O)O` [8.91 mg Ala, Alanine], in data set [1] (setting [8]), the Color entry is on record as “No color”; the Smell entry is “Neutral, slightly Agar”; the Taste result is given as “Slightly sweet”.
Turning to `O=C[C@H](O)[C@@H](O)[C@H](O)CO` [10 mmol Xyl, Xylose], in data set [1] (Glycerin 10 ml, 100 °C, 40 min), the Color result is on record as “Slightly Yellow” and the Smell entry is recorded as “Slightly Popcorn”. In addition, in data set [1] (Glycerin 10 ml, 1 h, 120 °C), the Color result is on record as “No color” and the Smell entry was “neutral”.
For the compound `N[C@@H](CO)C(=O)O` [10.5 mg Ser, Serine], in data set [1] (setting [8]), the Color entry was “Slightly Yellow”, the Smell entry is reported as “Lotus flower” and the Taste result is reported as “Slightly sweet”.
On to `O=C(O)[C@@H]1CCCN1` [11.5 mg Pro, Proline], for which, in data set [1] (setting [8]), the Color result is listed as “Slightly Yellow”; the Smell result was “Neutral, slightly”; the Taste entry is “Slightly sweet”.
As for `C[C@@H](O)[C@H](N)C(=O)O` [11.91 mg Thr, Threonine], in data set [1] (setting [8]), the Color entry was “Very Slightly”; the Smell entry is on record as “Vanilla, butter”; the Taste result is given as “Slightly sweet”.
In the case of `N[C@@H](CS)C(=O)O` [12.1 mg Cys, Cysteine], in data set [1] (setting [8]), the Color result is reported as “Slightly Yellow”, the Smell entry is listed as “Unpleasant (sulfur)” and the Taste entry is listed as “Slightly sweet”.
The matching figures for `CC[C@H](C)[C@H](N)C(=O)O` [13.11 mg Ile, Isoleucine]: “No color”, “Coffee” and “Slightly sweet”.
The corresponding values for `NCCCC[C@H](N)C(=O)O` [14.7 mg Lys, Lysine] are “brown”, “Popcorn” and “Slightly sweet”.
For the compound `CSCC[C@H](N)C(=O)O` [14.9 mg Met, Methionine], in data set [1] (setting [8]), the Color result was “Very Slightly”, the Smell entry is “Sulfuric” and the Taste result is “Slightly sweet”.
`N[C@@H](Cc1ccccc1)C(=O)O` [16.5 mg Phe, Phenylalanine]: the Color result in data set [2] is on record as “No color”; in data set [1] (setting [9]), “Slightly Yellow”; in data set [1] (setting [10]), “No color”; in data set [1] (setting [8]), “Very Slightly”. Besides, the Smell result in data set [2] is recorded as “neutral”; in data set [1] (setting [9]) it was “Caramel, burnt”; in data set [1] (setting [10]) it was “Neutral”; in data set [1] (setting [8]) it was “Bloomy, caramel”. Further, the Taste result is recorded as “No taste” in data set [2]; “Sweet” in data set [1] (after reaction, after dilution 1:20 (Example 58)); “No taste” in data set [1] (before reaction, after dilution 1:20 (Example 58)); “Slightly sweet” in data set [1] (setting [8]).
In the case of `O=C[C@H](O)[C@@H](O)[C@H](O)[C@H](O)C(=O)O` [18 mg Glucuronic Acid, Glucuronic Acid], in data set [2], the Color entry was “No color”, the Smell result was “neutral” and the Taste result was “No taste”.
Consider `N[C@@H](Cc1ccc(O)cc1)C(=O)O` [18.1 mg Tyr, Tyrosine], for which, in data set [1] (setting [8]), the Color entry is listed as “No color”, the Smell result is “neutral” and the Taste result was “Slightly sweet”.
The matching figures for `N[C@@H](Cc1c[nH]c2ccccc12)C(=O)O` [20.42 mg Try, Tryptophan]: “Slightly Yellow”, “Unpleasant (fecal)” and “Slightly sweet”.
Regarding `O=C[C@H](O)[C@@H](O)[C@H](O)CO` [167 mMol Xyl, Xylose], in data set [1] (setting [11]), the Color result is “No color”, the Smell entry is given as “neutral/meat” and the Taste result was “Sweet”.
In the case of `COC(=O)[C@H](Cc1ccccc1)NC(=O)[C@@H](N)CC(=O)O` [Aspartame] (H-Asp-Phe-OMe), the sweetness in data set [3] is recorded as 160-200 times sweeter than sucrose.
Regarding `O=C[C@H](O)[C@@H](O)[C@H](O)[C@H](O)C(=O)O` [Glucuronic Acid], the “consumption in the reaction with Phe” value in data set [4] is listed as “completely consumed”. In addition, in data set [1] (setting [12]), the Color result is reported as “Deep Yellow”, the Smell entry is on record as “burnt bread” and the Taste result is reported as “Bitter”.
The matching figures for `O=C[C@H](O)[C@H]1OC(=O)[C@@H](O)[C@H]1O` [Glucuronolactone]: “completely consumed”, “Deep Yellow”, “Burnt sugar” and “Bitter”.
For the compound `N[C@@H](Cc1ccccc1)C(=O)O` [Phe 60 mMol, Phenylalanine], in data set [1] (setting [11]), the Color entry was “Slightly Yellow”, the Smell result is “flowery/bloomy-caramel” and the Taste entry is “Sweet”.
As to `O=C[C@H](O)[C@@H](O)[C@H](O)CO` [Xyl, Xylose], in data set [4] (Phe + Xyl, pH = 7.0, 1.0 h), the “% degradation” value was determined as 6.3%.
Take `O=S(=O)([O-])NC1CCCCC1.[Na+]` [sodium cyclamate]: the sweetness entry in data set [3] is listed as “about 30 times sweeter than sucrose”.
Turning to `OC[C@H]1O[C@H](O[C@]2(CCl)O[C@H](CCl)[C@@H](O)[C@@H]2O)[C@H](O)[C@@H](O)[C@H]1Cl` [sucralose], the sweetness result in data set [3] is listed as “about 600 times sweeter than sucrose”.
Take MoneIlin: in data set [3] (compared to sucrose), the Sweetness by weight was 800-2,000.
